Reference: patent EP0001174A1, “A peptide and the salts thereof, processes for their preparation and compositions containing them” (NYEGAARD & CO. A/S, priority 1977, dated 1979)
Non-standard residues stand in square brackets, D forms with d. Residues, ends and D or L forms follow the SMILES beside them. pGlu = O=C1CC[C@@H](C(=O)O)N1

Test: biological activity of the synthetic peptide compared with the biogenic material isolated from urine (test not described; anorexigenic properties stated)
Details: no method or figures given

## O=C(O)CNC(=O)[C@H](Cc1cnc[nH]1)NC(=O)[C@@H]1CCC(=O)N1 [synthetic peptide, L-(pyro)glutamyl-L-histidyl-glycine] ([pGlu]-His-Gly-OH)
  biological activity: comparable biological activity
